Reference: patent US9783527B2, “Indazole ureas and method of use” (AbbVie Inc., priority 2014, dated 2017)

What was measured:
[1] = target: human Nav1.7 (Homo sapiens (Human), UniProt Q15858); assay: FRET-based membrane potential assay, recombinant human sodium channel Nav1.7; assay type: cell-based; conditions: HEK293 cells stably expressing recombinant human Nav1.7; depolarization with veratridine (EC80) + scorpion venom
Procedure, shortened: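 IC50 derived by four-parameter Hill fit of percent inhibition of depolarization, measured as peak F440-480/F565-625 ratio over baseline. Stable human Nav1.7 HEK293 cells, dye-loaded with CC2-DMPE and DiSBAC2(3)/VABSC-1 at room temperature, received compound 3 min ahead of veratridine (EC80) plus scorpion venom.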

[2] = target: human Nav1.8 (Homo sapiens (Human), UniProt Q9Y5Y9); assay: FRET-based membrane potential assay, recombinant human sodium channel Nav1.8; assay type: cell-based; conditions: HEK293 cells stably expressing recombinant human Nav1.8; depolarization with veratridine (EC80) + scorpion venom
human Nav1.8, sequence (Q9Y5Y9 whole entry): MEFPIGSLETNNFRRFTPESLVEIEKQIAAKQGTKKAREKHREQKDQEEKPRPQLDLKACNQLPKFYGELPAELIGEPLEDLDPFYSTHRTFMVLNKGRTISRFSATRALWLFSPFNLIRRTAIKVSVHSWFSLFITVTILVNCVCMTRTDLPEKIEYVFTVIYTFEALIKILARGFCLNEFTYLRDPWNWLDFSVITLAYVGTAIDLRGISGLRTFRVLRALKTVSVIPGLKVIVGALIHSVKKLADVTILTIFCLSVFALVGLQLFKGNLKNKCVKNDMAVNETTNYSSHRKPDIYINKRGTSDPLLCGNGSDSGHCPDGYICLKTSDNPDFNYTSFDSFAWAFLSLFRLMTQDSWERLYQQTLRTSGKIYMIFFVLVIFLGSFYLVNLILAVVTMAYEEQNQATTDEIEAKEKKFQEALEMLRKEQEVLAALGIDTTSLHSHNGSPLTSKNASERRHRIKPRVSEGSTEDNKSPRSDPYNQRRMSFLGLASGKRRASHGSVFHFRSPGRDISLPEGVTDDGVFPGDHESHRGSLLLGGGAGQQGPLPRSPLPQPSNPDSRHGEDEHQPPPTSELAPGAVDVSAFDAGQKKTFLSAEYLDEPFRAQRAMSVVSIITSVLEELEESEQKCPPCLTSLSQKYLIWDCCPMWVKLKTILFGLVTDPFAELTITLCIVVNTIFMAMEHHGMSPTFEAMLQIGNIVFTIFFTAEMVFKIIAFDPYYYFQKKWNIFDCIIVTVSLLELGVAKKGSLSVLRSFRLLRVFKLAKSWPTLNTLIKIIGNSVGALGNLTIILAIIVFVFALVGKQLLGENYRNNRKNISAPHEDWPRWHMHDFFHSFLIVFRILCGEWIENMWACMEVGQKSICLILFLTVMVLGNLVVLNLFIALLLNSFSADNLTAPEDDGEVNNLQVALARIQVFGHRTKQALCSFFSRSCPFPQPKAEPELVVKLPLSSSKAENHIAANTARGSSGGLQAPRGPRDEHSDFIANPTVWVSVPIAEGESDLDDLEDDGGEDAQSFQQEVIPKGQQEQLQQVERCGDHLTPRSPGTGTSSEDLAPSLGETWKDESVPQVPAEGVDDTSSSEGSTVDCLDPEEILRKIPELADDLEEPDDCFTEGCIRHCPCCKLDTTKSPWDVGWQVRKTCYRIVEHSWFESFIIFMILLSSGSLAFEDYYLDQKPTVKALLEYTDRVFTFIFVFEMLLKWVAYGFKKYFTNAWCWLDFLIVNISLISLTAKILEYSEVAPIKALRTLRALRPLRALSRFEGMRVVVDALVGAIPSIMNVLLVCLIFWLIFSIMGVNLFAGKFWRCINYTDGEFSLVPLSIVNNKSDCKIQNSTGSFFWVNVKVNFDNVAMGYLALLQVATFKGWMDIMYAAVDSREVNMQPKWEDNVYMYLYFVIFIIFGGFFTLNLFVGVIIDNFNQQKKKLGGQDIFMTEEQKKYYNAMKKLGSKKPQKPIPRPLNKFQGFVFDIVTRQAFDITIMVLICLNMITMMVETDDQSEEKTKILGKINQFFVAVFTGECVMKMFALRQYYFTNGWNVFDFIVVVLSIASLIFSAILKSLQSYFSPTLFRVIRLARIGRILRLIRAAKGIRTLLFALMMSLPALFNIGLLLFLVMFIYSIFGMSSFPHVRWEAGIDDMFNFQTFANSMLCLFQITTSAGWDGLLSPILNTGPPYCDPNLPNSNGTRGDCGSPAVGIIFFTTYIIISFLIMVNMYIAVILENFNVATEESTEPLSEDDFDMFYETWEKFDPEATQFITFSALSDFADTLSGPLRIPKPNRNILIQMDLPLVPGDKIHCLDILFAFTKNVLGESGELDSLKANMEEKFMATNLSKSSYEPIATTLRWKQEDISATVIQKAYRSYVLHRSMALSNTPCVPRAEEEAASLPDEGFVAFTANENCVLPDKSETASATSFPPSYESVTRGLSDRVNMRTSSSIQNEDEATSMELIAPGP
Method: FRET-Based Membrane Potential Assays.
Recombinant, Human Sodium Channel, Nav1.8.
Two days prior to the experiment, frozen HEK293 cells stably expressing recombinant human Nav1.8 (Essen, Ann Arbor, Mich.) were quickly thawed and plated at 22,500 cells/well in growth medium [MEM (Invitrogen #11095) with 10% FBS (Invitrogen #10082), 1 mM sodium pyruvate (Invitrogen, #C11360), 10 units/mL penicillin/10 U/mL streptomycin/29.2 μg/mL glutamine ((PSG 1%, Invitrogen #10378), 400 μg/mL zeocin (Invitrogen #R250) in black-walled, clear-bottom 384-well poly-D-lysine-coated assay plates (Greiner Bio-One, Frickenhausen, Germany) and incubated in a humidified 5% CO2 incubator at 37° C. On the day of the assay, medium was removed by aspiration, and cells were washed with assay buffer [HBSS (Invitrogen, Carlsbad, Calif.) containing 20 mM HEPES (Invitrogen, Carlsbad, Calif.)]. After washing, 30 μL assay buffer containing the fluorescent voltage-sensor probe CC2-DMPE (Invitrogen, Carlsbad, Calif.) at 20 μM and 0.01% pluronic F-127 (Invitrogen, Carlsbad, Calif.) was added to the cells. Cells were incubated for 40 minutes at room temperature in the dark. Following the incubation, the cells were washed and 30 μL assay buffer containing 2.5 μM DiSBAC2(3) substrate (Invitrogen, Carlsbad, Calif.) and 0.5 mM VABSC-1 (Invitrogen, Carlsbad, Calif.) was added to the cells. The cells were incubated for 60 minutes at room temperature in the dark. Fluorescence readings were made using a FLIPR®^TETRA (Molecular Devices, Sunnyvale Calif.) equipped with voltage-sensor probe optics. The depolarizing agent, veratridine (Sigma-Aldrich, St. Louis, Mo.), was made up at 3× concentrations in assay buffer containing 1 mg/mL scorpion venom (SVqq, from Leiurus quinquestriatus; Sigma-Aldrich, St. Louis, Mo.). The assay agonist/opener concentration was determined each day using a 6-point veratridine concentration curve in duplicate, tested with three concentrations of tetracaine (0.1, 0.06, 0.01 μM all in 0.03% dimethyl sulfoxide) and 0.03% dimethyl sulfoxide control in assay buffer. […] Test compounds in the daughter plate were diluted to (˜3×) solutions in assay buffer immediately before assaying. Using the FLIPR®^TETRA, 20 μL of the (3×) compound solutions were first added to the cells, then 20 μL of depolarizing solution (3×EC80 veratridine+SVqq) were added 3 minutes later to activate the channel. Changes in fluorescence were measured at wavelengths of 440-480 nm and 565-625 nm over the course of the experimental run. Membrane depolarization was expressed as a ratio of the maximum F440-480 nm/F565-625 nm reading above average baseline F440-480 nm/F565-625 nm reading. IC50 values were calculated from curve fits of the ratio data using a four-parameter logistic Hill equation (Accelrys Assay Explorer 3.3 Client, Accelrys, San Diego, Calif.) with percent inhibition plotted against compound concentration.

human Nav1.7, sequence (Q15858 whole entry): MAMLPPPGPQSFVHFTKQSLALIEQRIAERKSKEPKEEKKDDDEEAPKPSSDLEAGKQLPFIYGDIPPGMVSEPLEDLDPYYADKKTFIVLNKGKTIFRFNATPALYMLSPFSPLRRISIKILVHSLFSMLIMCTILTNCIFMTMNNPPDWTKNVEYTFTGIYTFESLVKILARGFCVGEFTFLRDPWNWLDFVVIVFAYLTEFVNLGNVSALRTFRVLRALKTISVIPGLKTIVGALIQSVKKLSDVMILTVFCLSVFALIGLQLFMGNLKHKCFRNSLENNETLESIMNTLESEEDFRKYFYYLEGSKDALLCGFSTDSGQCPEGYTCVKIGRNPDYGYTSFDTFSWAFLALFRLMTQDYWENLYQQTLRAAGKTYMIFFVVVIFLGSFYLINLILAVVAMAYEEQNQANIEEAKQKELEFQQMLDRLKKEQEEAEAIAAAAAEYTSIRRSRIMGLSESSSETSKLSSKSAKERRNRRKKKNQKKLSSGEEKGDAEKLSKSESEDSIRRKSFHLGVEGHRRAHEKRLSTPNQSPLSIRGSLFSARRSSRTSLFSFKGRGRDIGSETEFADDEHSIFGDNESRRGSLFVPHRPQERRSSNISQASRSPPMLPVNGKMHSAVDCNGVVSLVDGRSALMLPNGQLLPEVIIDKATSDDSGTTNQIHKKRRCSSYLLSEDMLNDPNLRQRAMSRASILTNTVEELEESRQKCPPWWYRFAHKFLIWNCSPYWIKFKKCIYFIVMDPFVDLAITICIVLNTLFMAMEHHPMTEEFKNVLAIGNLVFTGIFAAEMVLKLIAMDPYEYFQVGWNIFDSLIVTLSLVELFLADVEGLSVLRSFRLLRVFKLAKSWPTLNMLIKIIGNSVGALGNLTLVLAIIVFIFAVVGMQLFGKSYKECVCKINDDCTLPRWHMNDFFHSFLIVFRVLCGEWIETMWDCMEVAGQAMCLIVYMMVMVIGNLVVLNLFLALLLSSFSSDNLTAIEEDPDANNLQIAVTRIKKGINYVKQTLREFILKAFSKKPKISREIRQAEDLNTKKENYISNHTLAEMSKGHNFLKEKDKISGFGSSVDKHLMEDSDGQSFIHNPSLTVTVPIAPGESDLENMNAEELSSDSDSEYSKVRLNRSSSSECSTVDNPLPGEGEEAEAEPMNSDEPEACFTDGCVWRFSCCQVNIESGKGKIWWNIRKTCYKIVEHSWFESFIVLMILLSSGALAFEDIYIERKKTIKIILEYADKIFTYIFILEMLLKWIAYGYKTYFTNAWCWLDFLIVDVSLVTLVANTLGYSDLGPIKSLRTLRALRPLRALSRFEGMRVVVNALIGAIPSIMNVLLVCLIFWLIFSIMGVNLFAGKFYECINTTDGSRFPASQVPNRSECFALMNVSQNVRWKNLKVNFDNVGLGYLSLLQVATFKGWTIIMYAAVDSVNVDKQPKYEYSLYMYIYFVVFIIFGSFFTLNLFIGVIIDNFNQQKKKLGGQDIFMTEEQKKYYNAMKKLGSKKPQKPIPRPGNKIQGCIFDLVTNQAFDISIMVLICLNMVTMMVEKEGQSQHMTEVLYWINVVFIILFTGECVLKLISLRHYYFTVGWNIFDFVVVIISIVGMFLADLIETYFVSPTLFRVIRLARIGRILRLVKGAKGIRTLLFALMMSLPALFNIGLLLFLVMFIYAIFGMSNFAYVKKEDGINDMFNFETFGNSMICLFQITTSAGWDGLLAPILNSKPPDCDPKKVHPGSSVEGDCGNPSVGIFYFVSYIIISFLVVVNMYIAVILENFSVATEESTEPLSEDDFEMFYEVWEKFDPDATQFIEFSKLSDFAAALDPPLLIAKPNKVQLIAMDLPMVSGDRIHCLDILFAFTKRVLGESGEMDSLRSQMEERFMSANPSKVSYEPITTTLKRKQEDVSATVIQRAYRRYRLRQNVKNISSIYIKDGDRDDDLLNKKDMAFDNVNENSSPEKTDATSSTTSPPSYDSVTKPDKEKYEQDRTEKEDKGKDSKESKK

| Structure (SMILES) | IC50 [1] [µM] | IC50 [2] [µM] |
| --- | --- | --- |
| O=C(CN1CCN(c2cccc3c2cnn3-c2ccccc2F)C1=O)NC1CC(=NO)C1 (stereo not drawn) [Example 354, 2-{3-[1-(2-fluorophenyl)-1H-indazol-4-yl]-2-oxoimidazolidin-1-yl}-N-[3-(hydroxyimino)cyclobutyl]acetamide] | 6.5 | 16.6 |
| O=C(CN1CCN(c2cccc3c2cnn3-c2ccccc2F)C1=O)N1CCCC(C(F)(F)F)C1 (stereo not drawn) [Example 300, 1-[1-(2-fluorophenyl)-1H-indazol-4-yl]-3-{2-oxo-2-[3-(trifluoromethyl)piperidin-1-yl]ethyl}imidazolidin-2-one] | 3.11 | 1.06 |
| O=C(CN1CCN(c2cccc3c2cnn3-c2ccccc2F)C1=O)N1CCCCC1 [Example 295, 1-[1-(2-fluorophenyl)-1H-indazol-4-yl]-3-[2-oxo-2-(piperidin-1-yl)ethyl]imidazolidin-2-one] | 2.51 | 1.79 |
| O=C(CN1CCN(c2cccc3c2cnn3-c2ccccc2F)C1=O)NC1CC(F)(F)C1 [Example 310, N-(3,3-difluorocyclobutyl)-2-{3-[1-(2-fluorophenyl)-1H-indazol-4-yl]-2-oxoimidazolidin-1-yl}acetamide] | 2.81 | 0.878 |
| O=C(CN1CCN(c2cccc3c2cnn3-c2ccccc2F)C1=O)NCC(F)(F)F [Example 304, 2-{3-[1-(2-fluorophenyl)-1H-indazol-4-yl]-2-oxoimidazolidin-1-yl}-N-(2,2,2-trifluoroethyl)acetamide] | 4.79 | 1.41 |
| O=C1CCCC[C@@H]1N1CCN(c2cccc3c2cnn3-c2ccccc2F)C1=O [Example 281, 1-[1-(2-fluorophenyl)-1H-indazol-4-yl]-3-[(1S)-2-oxocyclohexyl]imidazolidin-2-one] | 11.6 | 12.4 |
| O=C(CN1CCN(c2cccc3c2cnn3-c2ccccc2F)C1=O)N[C@@H]1CCC[C@@H]1O [Example 332, 2-{3-[1-(2-fluorophenyl)-1H-indazol-4-yl]-2-oxoimidazolidin-1-yl}-N-[(1R,2S)-2-hydroxycyclopentyl]acetamide] | 5.1 | 2.64 |
| O=C1N(c2cccc3c2cnn3-c2ccccc2F)CCN1[C@H]1CCCC[C@@H]1O [Example 276, 1-[1-(2-fluorophenyl)-1H-indazol-4-yl]-3-[(1S,2S)-2-hydroxycyclohexyl]imidazolidin-2-one] | 15.1 | 6.44 |
| CO[C@H]1C[C@H](NC(=O)CN2CCN(c3cccc4c3cnn4-c3ccccc3F)C2=O)C1 [Example 326, 2-{3-[1-(2-fluorophenyl)-1H-indazol-4-yl]-2-oxoimidazolidin-1-yl}-N-(trans-3-methoxycyclobutyl)acetamide] | – | 5.25 |
| CN1CCN(c2cccc3c2cnn3-c2ccccc2F)C1=O [Example 344, 1-[1-(2-fluorophenyl)-1H-indazol-4-yl]-3-methylimidazolidin-2-one] | – | 7.38 |
| Cc1cncc(CN2CCN(c3cccc4c3cnn4-c3ccccc3F)C2=O)c1 [Example 228, 1-[1-(2-fluorophenyl)-1H-indazol-4-yl]-3-[(5-methylpyridin-3-yl)methyl]imidazolidin-2-one] | 1.09 | – |
| O=C1N(CC(=O)N2CCC[C@@H]2c2ccccc2)CCN1c1cccc2c1cnn2-c1ccccc1F [Example 128, 1-[1-(2-fluorophenyl)-1H-indazol-4-yl]-3-{2-oxo-2-[(2R)-2-phenylpyrrolidin-1-yl]ethyl}imidazolidin-2-one] | 0.746 | – |
| CC1COCC(C)N1C(=O)CN1CCN(c2cccc3c2cnn3-c2ccccc2F)C1=O (stereo not drawn) [Example 101, 1-[2-(3,5-dimethylmorpholin-4-yl)-2-oxoethyl]-3-[1-(2-fluorophenyl)-1H-indazol-4-yl]imidazolidin-2-one] | 3.52 | – |
| CO[C@H](CC(C)C)CN1CCN(c2cccc3c2cnn3-c2ccccc2F)C1=O [Example 214, 1-[1-(2-fluorophenyl)-1H-indazol-4-yl]-3-[(2R)-2-methoxy-4-methylpentyl]imidazolidin-2-one] | 2.02 | – |
| C=CCCC(C)(O)CN1CCN(c2cccc3c2cnn3-c2ccccc2F)C1=O (stereo not drawn) [Example 146, 1-[1-(2-fluorophenyl)-1H-indazol-4-yl]-3-(2-hydroxy-2-methylhex-5-en-1-yl)imidazolidin-2-one] | 3.12 | – |
| O=C(CN1CCN(c2cccc3c2cnn3-c2ccccc2F)C1=O)N1CC2CCCC2C1 (stereo not drawn) [Example 106, 1-[1-(2-fluorophenyl)-1H-indazol-4-yl]-3-[2-(hexahydrocyclopenta[c]pyrrol-2(1H)-yl)-2-oxoethyl]imidazolidin-2-one] | 0.635 | – |
| O=C1CCC(N2CCN(c3cccc4c3cnn4-c3ccccc3F)C2=O)CC1 [Example 266, 1-[1-(2-fluorophenyl)-1H-indazol-4-yl]-3-(4-oxocyclohexyl)imidazolidin-2-one] | 3.02 | – |
| CC(=O)N1CC(CN2CCN(c3cccc4c3cnn4-c3ccccc3F)C2=O)C1 [Example 216, 1-[(1-acetylazetidin-3-yl)methyl]-3-[1-(2-fluorophenyl)-1H-indazol-4-yl]imidazolidin-2-one] | 20 | – |
| C[C@@]1(c2cccc(F)c2)C[C@@H](N2CCN(c3cccc4c3cnn4-c3ccccc3F)C2=O)CO1 [Example 203, 2,5-anhydro-1,3,4-trideoxy-2-(3-fluorophenyl)-4-{3-[1-(2-fluorophenyl)-1H-indazol-4-yl]-2-oxoimidazolidin-1-yl}-L-threo-pentitol] | 3.67 | – |
| O=C1CN(C(=O)CN2CCN(c3cccc4c3cnn4-c3ccccc3F)C2=O)CC(=O)N1 [Example 103, 4-({3-[1-(2-fluorophenyl)-1H-indazol-4-yl]-2-oxoimidazolidin-1-yl}acetyl)piperazine-2,6-dione] | 3.62 | – |
| O=C1N(c2cccc3c2cnn3-c2ccccc2F)CCN1S(=O)(=O)C1CCCCC1 [Example 78, 1-(cyclohexylsulfonyl)-3-[1-(2-fluorophenyl)-1H-indazol-4-yl]imidazolidin-2-one] | 2.94 | – |
| O=C1N(CC2CCCO2)CCN1c1cccc2c1cnn2-c1ccccc1F (stereo not drawn) [Example 182, 1-[1-(2-fluorophenyl)-1H-indazol-4-yl]-3-(tetrahydrofuran-2-ylmethyl)imidazolidin-2-one] | 2.62 | – |
| CC(C)C(O)CN1CCN(c2cccc3c2cnn3-c2ccccc2F)C1=O (stereo not drawn) [Example 163, 1-[1-(2-fluorophenyl)-1H-indazol-4-yl]-3-(2-hydroxy-3-methylbutyl)imidazolidin-2-one] | 2.16 | – |
| CC1(C)CCCN1C(=O)CN1CCN(c2cccc3c2cnn3-c2ccccc2F)C1=O [Example 172, 1-[2-(2,2-dimethylpyrrolidin-1-yl)-2-oxoethyl]-3-[1-(2-fluorophenyl)-1H-indazol-4-yl]imidazolidin-2-one] | 2.6 | – |
| Cc1cnc(CN2CCN(c3cccc4c3cnn4-c3ccccc3F)C2=O)cn1 [Example 257, 1-[1-(2-fluorophenyl)-1H-indazol-4-yl]-3-[(5-methylpyrazin-2-yl)methyl]imidazolidin-2-one] | 3.09 | – |
| O=C1N(CCc2ccccc2)CCN1c1cccc2c1cnn2-c1ccccc1F [Example 193, 1-[1-(2-fluorophenyl)-1H-indazol-4-yl]-3-(2-phenylethyl)imidazolidin-2-one] | 0.998 | – |
| Cc1noc(C)c1N1CCN(c2cccc3c2cnn3-c2ccccc2F)C1=O [Example 236, 1-(3,5-dimethyl-1,2-oxazol-4-yl)-3-[1-(2-fluorophenyl)-1H-indazol-4-yl]imidazolidin-2-one] | 0.924 | – |
| CO[C@@H](CC(C)C)CN1CCN(c2cccc3c2cnn3-c2ccccc2F)C1=O [Example 215, 1-[1-(2-fluorophenyl)-1H-indazol-4-yl]-3-[(2S)-2-methoxy-4-methylpentyl]imidazolidin-2-one] | 1.08 | – |
